These results are taken from US4666924A, “Certain pyridyl substituted aminomethyl benzene derivatives having anti-arrhythmic activity” (priority 1984, dated 1987).

The subject of data set [1] is guinea pig ileum. Kind of data set: In vitro anticholinergic activity in the isolated guinea pig ileum (field stimulation). Format: cell-based, male Hartley guinea pigs. To be noted: for inhibition at 4 µg/mL: Cavia porcellus, read-out: Anticholinergic Inhibition of Guinea Pig Ileum. The protocol: The following examples describe the in vitro evaluation of anticholinergic activity in the isolated guinea pig ileum. Fasted, male Hartley guinea pigs (300-400 g) were killed by a blow to the head. […] One end of the ileal strip was impaled onto a platinum wire electrode; and the other end was tied to a stationary glass rod. Basal tension was set at 0.1-0.3 g and peak developed tension in response to field stimulation (100-150 V, 10 msec pulse duration, 0.2 Hz) was measured with a tension transducer.

Data set [2] relates to Harris dog (ventricular arrhythmias). The data set can be described thus: Antiarrhythmic activity by coronary ligation in the Harris dog model. To be noted: for minimal effective dose: Canis lupus familiaris, 5 min, read-out: Antiarrhythmic ED in Harris Dog (effective dose required to sustain normal sinus rhythm). The format is in vivo, adult mongrel dogs. The text has this: The following examples describe the pharmacological evaluation of the compounds made in accordance with the present invention. In particular, these examples describe the evaluation of antiarrhythmic activity by coronary ligation in the well known Harris dog model. Ventricular arrhythmias were induced in adult mongrel dogs (10-15 kg) of either sex by two-state ligation of the left anterior descending coronary artery. […] The test compound in saline was infused intravenously at a cumulative rate of 0.3 mg/kg/min (base) until normal sinus rhythm or toxicity occurred. Normal sinus rhythm was defined as 90-100% normal complexes over a 5 min period.

Data set [3] has as its system cardiac cells. The following applies: cited from earlier work; for effects on impulse formation, conduction velocity and refractory period: cardiac cells.
Data set [4] deals with vagal stimulation of the heart and peripheral parasympathetic stimulation. The following applies: cited from earlier work.
Data set [5] concerns patients. The following applies: cited from earlier work.
Setting [6] is: at 4 mg/L, field stimulation 100-150 V, 10 msec, 0.2 Hz.
Setting [7] is: IV infusion in saline, cumulative rate 0.3 mg/kg/min (base), day after two-stage ligation of left anterior descending coronary artery, normal sinus rhythm = 90-100% normal complexes over 5 min.
Where [8] appears, read: patients, management of arrhythmias.

The structures appear in SMILES notation. Read-outs that look alike come from different tables or passages of the source.

Take `COc1cc2c(Nc3cc(CN4CCCC4)c(O)c(CN4CCCC4)c3)ncnc2c(OC)c1OC` [XII, 4-[3',5'-bis(pyrrolidinylmethyl)-4'-hydroxyanilino]-6,7,8-trimethoxyquinazoline]: the inhibition at 4 µg/mL in data set [1] (setting [6]) worked out at 14%.
As to `Oc1ccc(Nc2nncc3ccccc23)cc1` [Example III, 1-(4'-hydroxyanilino)phthalazine], the “Antiarrhythmic ED in Harris Dog (effective dose required to sustain normal sinus rhythm)” value (“Antiarrhythmic ED in Harris Dog” below) in data set [2] (setting [7]) was “inactive”. Further, in data set [1] (setting [6]), the inhibition at 4 µg/mL is 23%.
Regarding `COc1nnc(Nc2cc(CN3CCCC3)c(O)c(CN3CCCC3)c2)c2ccccc12` [VII, 1-N-[3',5'-bis(pyrrolidinylmethyl)-4'-hydroxyanilino]-4-methoxyphthalazine], the “Antiarrhythmic ED in Harris Dog” value in data set [2] (setting [7]) is given as “low activity”. Further, the inhibition at 4 µg/mL in data set [1] (setting [6]) worked out at 84%.
`Oc1c(CN2CCCC2)cc(CNc2nnc(Cl)c3ccccc23)cc1CN1CCCC1` [XIX, 1-N-[3',5'-bis(N-pyrrolidinylmethyl)-4'-hydroxybenzylamino]-4-chlorophthalazine]: the minimal effective dose in data set [2] (setting [7]) amounted to 4.5 mg/kg. Further, the inhibition at 4 µg/mL in data set [1] (setting [6]) was determined as 78%.
`Oc1c(CN2CCCC2)cc(Nc2nncc3ccccc23)cc1CN1CCCC1` [Example IV, 1[3',5'-bis[N-pyrrolidinylmethyl]-4'-hydroxyanilino]-phthalazine]: in data set [2] (setting [7]), the minimal effective dose came out at 1.5 mg/kg. For the same compound, in data set [1] (setting [6]), the inhibition at 4 µg/mL is 83%.
On to `Clc1nnc(Nc2cc(CN3CCCC3)cc(CN3CCCC3)c2)c2ccccc12` [XXI], for which the minimal effective dose in data set [2] (setting [7]) came to 3 mg/kg. Also, the inhibition at 4 µg/mL in data set [1] (setting [6]) amounted to 93%.
Take `CC(C)N(CCC(C(N)=O)(c1ccccc1)c1ccccn1)C(C)C` (stereo not drawn) [Disopyramide, α[2-(diisopropylamino)-ethyl]α-phenol-2-pyridineacetamide]: in data set [2] (iv), the minimal effective dose was found to be 6.8 mg/kg. Also, in data set [3], the “effects on impulse formation, conduction velocity and refractory period” value is “depress impulse formation, slow conduction velocity, and increase the duration of the refractory period of cardiac cells”. In data set [1], the inhibition at 4 µg/mL amounted to 81%. The anticholinergic action result in data set [4] is recorded as “indirect anticholinergic actions”. For the same compound, the adverse side-effects result in data set [5] (setting [8]) is “dryness of the mouth, blurred vision, constipation, and urinary retention, and depression of myocardial contractility”.
Take `Oc1c(CN2CCCC2)cc(Nc2ccnc3cc(C(F)(F)F)ccc23)cc1CN1CCCC1` [XIII, 4-[3',5'-bis(N-pyrrolidinylmethyl)-4'-hydroxyanilino]-7-trifluoromethylquinoline]: in data set [2] (setting [7]), the minimal effective dose was 3 mg/kg. In addition, in data set [1] (setting [6]), the inhibition at 4 µg/mL came to 36%.
In the case of `Nc1cc(CN2CCCC2)c(O)c(CN2CCCC2)c1` [Example I, 3,5-bis(N-pyrrolidinylmethyl)-4-hydroxyaniline], the “Antiarrhythmic ED in Harris Dog” value in data set [2] (setting [7]) was “inactive”. Further, the inhibition at 4 µg/mL in data set [1] (setting [6]) was determined as 3%.
For `Oc1c(CN2CCCC2)cc(Nc2ccc(Cl)nn2)cc1CN1CCCC1` [Example X, 3-N-[3',5'-bis(N-pyrrolidinylmethyl)-4'-hydroxyanilino]-6-chloropyridazine], in data set [2] (setting [7]), the minimal effective dose amounted to 10.5 mg/kg. The inhibition at 4 µg/mL in data set [1] (setting [6]) amounted to 40%.
Consider `Oc1c(CN2CCCC2)cc(Nc2ncccn2)cc1CN1CCCC1` [Example XI, 2-N-[3',5'-bis(pyrrolidinylmethyl)-4'-hydroxyanilino]-pyrimidine], for which the “Antiarrhythmic ED in Harris Dog” value in data set [2] (setting [7]) is reported as “low activity”. In data set [1] (setting [6]), the inhibition at 4 µg/mL turned out to be 6%.
`Oc1c(CN2CCCC2)cc(Nc2nccc3ccccc23)cc1CN1CCCC1` [VIII, 1-N-[3',5'-bis(pyrrolidinylmethyl)-4'-hydroxyanilino]-isoquinoline]: in data set [2] (setting [7]), the minimal effective dose came to 1.1 mg/kg. Besides, in data set [1] (setting [6]), the “Anticholinergic Inhibition of Guinea Pig Ileum” value is given as “active”.
For `Oc1ccc(Nc2ncnc3ccccc23)cc1` [Example II, 4-(4'-hydroxyanilino)-quinazoline], in data set [2] (setting [7]), the “Antiarrhythmic ED in Harris Dog” value was “inactive”. Also, the inhibition at 4 µg/mL in data set [1] (setting [6]) worked out at 13%.
On to `Oc1c(CN2CCCC2)cc(Nc2ncnc3ccccc23)cc1CN1CCCC1` [Changrolin, 4-[3',5'-bis[N-pyrolidinylmethyl]-4'-hydroxyanilino]-quinazoline], for which the minimal effective dose in data set [2] (setting [7]) was determined as 10.3 mg/kg. For the same compound, the “antiarrhythmic effectiveness of known agent” value in data set [3] (background statement) was “effective antiarrhythmic agent”. Moreover, in data set [1] (setting [6]), the inhibition at 4 µg/mL amounted to 43%. Further, in data set [4], the anticholinergic action entry is “substantial anticholinergic activity”. Moreover, in data set [5] (setting [8]), the adverse side-effects result is listed as “skin discoloration in some patients”.
On to `CN(C)Cc1cc(Nc2nncc3ccccc23)cc(CN(C)C)c1O` [IX], for which the minimal effective dose in data set [2] (setting [7]) was 14 mg/kg. In addition, the inhibition at 4 µg/mL in data set [1] (setting [6]) was 14%.
On to `Oc1c(CN2CCCC2)cc(Nc2ccnc3ccccc23)cc1CN1CCCC1` [Example XVI, 4-[3',5'-bis(N-pyrrolidinylmethyl)-4'-hydroxyanilino]-quinoline], for which, in data set [2] (setting [7]), the “Antiarrhythmic ED in Harris Dog” value is “low activity”. The inhibition at 4 µg/mL in data set [1] (setting [6]) was found to be 19%.
Take `Oc1c(CN2CCCC2)cc(Nc2nnc(Cl)c3ccccc23)cc1CN1CCCC1` [Example V, 1-N-[3',5'-bis(N-pyrrolidinylmethyl)-4'-hydroxyanilino]-4-chlorophthalazine]: in data set [2] (setting [7]), the minimal effective dose turned out to be 2.5 mg/kg. Further, the inhibition at 4 µg/mL in data set [1] (setting [6]) was found to be 76%.
In the case of `C=C[C@H]1C[N@@]2CC[C@H]1C[C@@H]2[C@@H](O)c1ccnc2ccc(OC)cc12` (stereo in doubt) [Quinidine, 6-methoxy-α-(5'-vinyl-2-quinuclidinyl)-4-quindinemethanol], the minimal effective dose in data set [2] (setting [7]) came to 10.1 mg/kg. The “effects on impulse formation, conduction velocity and refractory period” value in data set [3] was “depress impulse formation, slow conduction velocity, and increase the duration of the refractory period of cardiac cells”. In data set [1] (setting [6]), the inhibition at 4 µg/mL was 62%. The anticholinergic action entry in data set [4] is given as “indirect anticholinergic actions”. The adverse side-effects result in data set [5] (human, in vivo) is “cardiotoxicity, diarrhea, nausea, vomiting, fever, hypertension and depression of myocardial contractility”.
On to `Oc1ccc(Nc2nnc(Cl)c3ccccc23)cc1CN1CCCC1` [VI, 1-N-[3'-N-pyrrolidinylmethyl-4'-hydroxyanilino]-4-chlorophthalazine], for which the minimal effective dose in data set [2] (setting [7]) turned out to be 17 mg/kg. The inhibition at 4 µg/mL in data set [1] (setting [6]) was determined as 65%.
As for `Oc1c(CN2CCCC2)cc(Nc2ccc3ccccc3n2)cc1CN1CCCC1` [Example XVII, 2-[3',5'-bis(N-pyrrolidinylmethyl)-4'-hydroxyanilino]-quinoline], the minimal effective dose in data set [2] (setting [7]) was determined as 6 mg/kg. Also, the inhibition at 4 µg/mL in data set [1] (setting [6]) was found to be 50%.
As for `Cc1cc(Nc2cc(CN3CCCC3)c(O)c(CN3CCCC3)c2)c2ccccc2n1` [Example XIV, 2-methyl-4-[3',5'-bis(N-pyrrolidinylmethyl)]-4'-hydroxyanilinoquinoline], the minimal effective dose in data set [2] (setting [7]) stood at 9.5 mg/kg.
`Oc1ccc(Nc2ccc3ccccc3n2)cc1CN1CCCC1` [XVIII, 2-[3'-(N-pyrrolidinylmethyl)-4'-hydroxyanilino]-quinoline]: in data set [2] (setting [7]), the minimal effective dose was determined as 11 mg/kg. Also, in data set [1] (setting [6]), the inhibition at 4 µg/mL was determined as 72%.
Regarding `Oc1c(CN2CCCC2)cc(Nc2ccnc3cc(Cl)ccc23)cc1CN1CCCC1` [Example XV, 4-[3',5'-bis(N-pyrrolidinylmethyl)-4'-hydroxyanilino]-7-chloroquinoline], the “Antiarrhythmic ED in Harris Dog” value in data set [2] (setting [7]) is “low activity”. Moreover, in data set [1] (setting [6]), the inhibition at 4 µg/mL turned out to be 27%.
On to `Oc1c(CN2CCCC2)cc(Nc2ccncc2)cc1CN1CCCC1` [XX], for which the minimal effective dose in data set [2] (setting [7]) was determined as 8 mg/kg. In addition, the inhibition at 4 µg/mL in data set [1] (setting [6]) amounted to 5%.
